Activity calls are given as the source filed them. No cut-off for these calls is given here.
What was measured:
SW480 = assay: Cytotoxicity against human SW480 cells incubated for 72 hrs by MTT assay; format: functional, cell-based; details: SW480, 72 h
PC-3 = assay: Cytotoxicity against human PC-3 cells incubated for 72 hrs by MTT assay; format: functional, cell-based; details: PC-3, 72 h
[1] = Selectivity index, ratio of IC50 for cytotoxicity against human HaCaT cells to IC50 for cytotoxicity against human SW480 cells; format: toxicity, cell-based; details: HaCaT cells versus SW480 cells, read-out: Ratio IC50
[2] = Selectivity index, ratio of IC50 for cytotoxicity against human HaCaT cells to IC50 for cytotoxicity against human MDA-MB-231 cells; format: toxicity, cell-based; details: HaCaT cells versus MDA-MB-231 cells, read-out: Ratio IC50
[3] = Selectivity index, ratio of IC50 for cytotoxicity against chinese hamster V79 cells to IC50 for cytotoxicity against human SW480 cells; format: toxicity, cell-based; details: V79 cells versus SW480 cells, read-out: Ratio IC50
[4] = Selectivity index, ratio of IC50 for cytotoxicity against chinese hamster V79 cells to IC50 for cytotoxicity against human SW620 cells; format: toxicity, cell-based; details: V79 cells versus SW620 cells, read-out: Ratio IC50
[5] = Selectivity index, ratio of IC50 for cytotoxicity against chinese hamster V79 cells to IC50 for cytotoxicity against human A549 cells; format: toxicity, cell-based; details: V79 cells versus A549 cells, read-out: Ratio IC50
MDA-MB-231 [6] = assay: Effect on mitochondrial mass in human MDA-MB-231 cells assessed as increase in MTGreen positive cells at IC50 incubated for 48 hrs by MitoTracker Green FM staining based flow cytometry analysis relative to control; format: functional
MDA-MB-231 [7] = assay: Effect on mitochondrial function in human MDA-MB-231 cells assessed as increase in MTRed CMXRos positive cells at IC50 incubated for 48 hrs by MitoTracker Red CMXRos staining based flow cytometry analysis relative to control; format: functional
Mitochondrial membrane [8] = assay: Induction of mitochondrial membrane potential loss in human A549 cells assessed as green fluorescence at IC50 incubated for 48 hrs MitoTracker Green FM staining based flow cytometry analysis (reference value: 8.93 %); format: cell membranes
A549 [9] = assay: Induction of cell cycle arrest in human A549 cells assessed as accumulation of cells at SubG1 phase at IC50 incubated for 24 hrs by propidium iodide staining based flow cytometry analysis (reference value: 0.71 %); format: functional
A549 [10] = assay: Induction of apoptosis in human A549 cells assessed as early apoptotic cells at IC50 incubated for 72 hrs by Annexin V-FITC staining based flow cytometry analysis (reference value: 1.68 %); format: functional
MDA-MB-231 [11] = assay: Induction of apoptosis in human MDA-MB-231 cells assessed as viable cells at IC50 incubated for 72 hrs by Annexin V-FITC staining based flow cytometry analysis (reference value: 91.53 %); format: functional
MDA-MB-231 [12] = assay: Induction of apoptosis in human MDA-MB-231 cells assessed as early apoptotic cells at IC50 incubated for 72 hrs by Annexin V-FITC staining based flow cytometry analysis (reference value: 4.23 %); format: functional
Mitochondrial membrane [13] = assay: Induction of mitochondrial membrane potential loss in human MDA-MB-231 cells assessed as green fluorescence at IC50 incubated for 48 hrs MitoTracker Green FM staining based flow cytometry analysis (reference value: 8.86 %); format: cell membranes
A549 [14] = assay: Induction of ROS generation of human A549 cells assessed as fold increase at IC50 incubated for 6 hrs by CellROX Green staining based spectrofluorometer analysis relative to control; format: functional
Pseudomonas aeruginosa = assay: Antimicrobial activity against Pseudomonas aeruginosa ATCC 15442 incubated for 18 hrs by twofold microdilution method; format: functional
A549 [15] = assay: Induction of mitochondrial respiration in human A549 cells assessed as increase in oxygen consumption rate by Oxygraph-2K system; format: functional, cell-based
Lipid bilayer [16] = assay: Induction of ionic transport in azolectin bilayer membrane assessed as specific channel-like structure formation in presence of HEPES buffer by electrophysiology technique
Lipid bilayer [17] = assay: Induction of ionic transport in azolectin bilayer membrane assessed as irregular disturbance in membrane permeability in presence of HEPES buffer by electrophysiology technique
Lipid bilayer [18] = assay: Induction of ionic transport in azolectin bilayer membrane assessed as membrane rupture in presence of HEPES buffer by electrophysiology technique
A549 [19] = assay: Induction of mitochondrial respiration in human A549 cells assessed as increase in oxygen consumption rate upto 10 uM by Oxygraph-2K system; format: functional, cell-based
Lipid bilayer [20] = assay: Induction of current generation in azolectin bilayer membrane in presence of HEPES buffer by electrophysiology technique

Row | Activity (Mitochondrial membrane [8]) [%] | Activity (Mitochondrial membrane [13]) [%] | MIC (Pseudomonas aeruginosa) [µg/mL] | Compound | IC50 (SW480) [nM] | IC50 (PC-3) [nM] | selectivity ratio [1] | selectivity ratio [2] | selectivity ratio [3] | selectivity ratio [4] | selectivity ratio [5] | Activity (MDA-MB-231 [6]) [%] | Activity (MDA-MB-231 [7]) [%] | Activity (A549 [9]) | Activity (A549 [10]) [%] | Activity (MDA-MB-231 [11]) [%] | Activity (MDA-MB-231 [12]) [%] | fold change (FC) (A549 [14]) | further results
1 | 32.5 | 70.7 | > 256 | CCCC[P+](CCCC)(CCCC)CCCCOC(=O)[C@H](CC)[C@H]1CC[C@H](C)[C@H]([C@@H](C)[C@H](O)[C@H](C)C(=O)[C@H](CC)[C@H]2O[C@]3(C=C[C@@H](O)[C@]4(CC[C@@](C)([C@H]5CC[C@](O)(CC)[C@H](C)O5)O4)O3)[C@H](C)C[C@@H]2C)O1.[Br-] | 490 | 1450 | 1.4 | 0.8 | 1.2 | 1.1 | 0.7 | 90 | 90 | Active | 52.57 | 33.55 | 39.5 | 2 | Activity (A549 [15]): Active; Small Increase In Oxygen Consumption Rate Was Observed
2 | 41.7 | 60.8 | 256 | CC[C@@H](C(=O)[C@@H](C)[C@@H](O)[C@H](C)[C@@H]1O[C@@H]([C@@H](CC)C(=O)OCCCC[P+](c2ccccc2)(c2ccccc2)c2ccccc2)CC[C@@H]1C)[C@H]1O[C@]2(C=C[C@@H](O)[C@]3(CC[C@@](C)([C@H]4CC[C@](O)(CC)[C@H](C)O4)O3)O2)[C@H](C)C[C@@H]1C.[Br-] | 390 | 1350 | 3.2 | 1.7 | 0.3 | 0.9 | 0.2 | 90 | 50 | 6% | 59.17 | 51.49 | 27.96 | 2 | Activity (Lipid bilayer [16]): inactive; Activity (Lipid bilayer [17]): inactive; Activity (Lipid bilayer [18]): inactive; Activity (A549 [19]): Active; Activity (Lipid bilayer [20]): Dose-dependent-effect

Reference: ChEMBL document CHEMBL6120978, “Anticancer activity of salinomycin quaternary phosphonium salts” (Eur J Med Chem, 2025)
